Tests used:
[1] = tested on: Ent. cloacae (3), Pr. vulgaris (1), Pr. morganii (1), S. marcescen (1); test: In vitro MIC, serial two-fold agar dilution, primary evaluation Gn-II (Ent. cloacae, Pr. vulgaris, Pr. morganii, S. marcescens); assay type: cell-based; details: CBPC = 100%; geometric mean of MICs; Mueller-Hinton agar
Experimental: (§1) Minimun inhibitory concentrations (MIC) were determined by the serial two-fold agar dilution method using Steers' apparatus on Mueller-Hinton agar plate against 31 test organisms for the primary screening and also against 64 strains of Pseudomonas aeruginosa for the secondary evaluation. The results are shown in Table 1 in terms of relative activity with respect to the standard compound CBPC (carbenicillin) which was set at 100%. In each group the calculation was based on the geometric mean of the observed MICs.
GnII = Ent. cloacae (3), Pr. vulgaris (1), Pr. morganii (1), S. marcescen

Ps. aeruginosa = test: In vitro MIC, serial two-fold agar dilution, primary evaluation Ps (6 strains); assay type: cell-based; details: CBPC = 100%; geometric mean of MICs; Mueller-Hinton agar
Experimental: as §1
Ps. = Ps. aeruginosa (6).

Pseudomonas aeruginosa = test: In vitro MIC, serial two-fold agar dilution, secondary evaluation against Pseudomonas aeruginosa strains; assay type: cell-based; details: CBPC = 100%; geometric mean of MICs; 61-64 strains
Experimental: as §1

[2] = tested on: E. coli (9), Klebsiella sp. (2), Pr. mirabilis (1), Sal. enteritidis (1); test: In vitro MIC, serial two-fold agar dilution, primary evaluation Gn-I (E. coli, Klebsiella sp., Pr. mirabilis, Sal. enteritidis); assay type: cell-based; details: CBPC = 100%; geometric mean of MICs; Mueller-Hinton agar
Experimental: as §1
GnI = E. coli (9), Klebsiella sp. (2), Pr. mirabilis (1), Sal.

S. aureus = test: In vitro MIC, serial two-fold agar dilution, primary evaluation Gp (S. aureus, 6 strains); assay type: cell-based; details: CBPC = 100%; geometric mean of MICs; Mueller-Hinton agar
Experimental: as §1
*GP = S. aureus (6 strains);

[3] = Antibiotic blood levels in mice following intramuscular administration (paper disc-agar diffusion, Escherichia coli NIHJ as assay organism); assay type: in vivo; details: mouse, im, I.M., 20 mg./kg.; for half-life: read-out: Blood level, Half-life; for Cmax: read-out: Blood level, Peak Concentration
Experimental: Antibiotic blood levels were determined in mice following intramuscular administration of the test compounds at 20 mg./kg. The blood samples were collected from the orbital sinuses into heparinized capillary tubes at 15, 30, 60 and 120 minutes after administration. The antibiotic concentration was determined by the paper disc-agar diffusion method using Escherichia coli NIHJ as the assay organism.

[4] = tested on: Pseudomonas aeruginosa A9843; test: In vivo efficacy, experimental infection in mice, intramuscular treatment, Pseudomonas aeruginosa A9843; design: species or system Pseudomonas aeruginosa (infected mice); details: A9843, im, 120 h, I.M., 100×LD50 challenge i.p., 5 days, read-out: PD50 Pseudomonas aeruginosa A9843
Experimental: (§2) The in vivo efficacy was evaluated by intramuscular treatment against three kinds of experimental infection in mice.
(§3) The in vivo tests were carried out using the following three pathogenic organisms:
Pseudomonas aeruginosa A9843
(§4) Mice were challenged intraperitoneally with approximately a 100×LD50 dose of the pathogens in a 5% mucin suspension. The mice were treated with test compound by I.M. route immediately after the bacterial challenge.

Escherichia coli Juhl = test: In vivo efficacy, experimental infection in mice, intramuscular treatment, Escherichia coli Juhl; design: species or system Escherichia coli (infected mice); details: im, 120 h, I.M., 100×LD50 challenge i.p., 5 days, read-out: PD50 Escherichia coli Juhl
Experimental: as §2, §3, §4

Structure (SMILES)	In vitro relative activity, primary evaluation Gn-II (6) [1] [%]	In vitro relative activity, primary evaluation Ps (6) (Ps. aeruginosa) [%]	In vitro relative activity, secondary, Pseudomonas aeruginosa (61-64) (Pseudomonas aeruginosa) [%]	In vitro relative activity, primary evaluation Gn-I (13) [2] [%]	In vitro relative activity, primary evaluation Gp (6) (S. aureus) [%]	half-life [3] [min]	Cmax [3] [ng/mL]	ED50 [4] [mg/kg]	ED50 (Escherichia coli Juhl) [mg/kg]
O=C([O-])C1=C(C[n+]2ccc(C(=O)O)c(C(=O)O)c2)CSC2C(NC(=O)[C@H](NC(=O)c3cnc4cccnc4c3O)c3ccc(O)cc3)C(=O)N12 (stereo partly drawn) [BB-S586, 7-[D-α-(4-Hydroxy-1,5-naphthyridine-3-carboxamido)-α-(4-hydroxyphenyl)acetamido]-3-(3,4-dicarboxypyridinium)methyl-3-cephem-4-carboxylate]	11	362	351	88	6	–	–	–	–
O=C([O-])C1=C(C[n+]2cccc(S(=O)(=O)O)c2)CSC2C(NC(=O)[C@H](NC(=O)c3cnc4cccnc4c3O)c3ccc(O)c(Cl)c3)C(=O)N12 (stereo partly drawn) [BB-S601, 7-[D-α-(4-Hydroxy-1,5-naphthyridine-3-carboxamido)-α-(3-chloro-4-hydroxyphenyl)acetamido]-3-(3-sulfopyridinium)methyl-3-cephem-4-carboxylate]	25	3200	2490	107	79	70	10000	4.4	–
O=C(O)CCc1ccc[n+](CC2=C(C(=O)[O-])N3C(=O)C(NC(=O)[C@H](NC(=O)c4cnc5cccnc5c4O)c4ccc(O)cc4)C3SC2)c1 (some centres unmarked) [BB-S619]	18	725	1600	88	31	55	10000	4.6	3.2
O=C([O-])C1=C(C[n+]2cccc(CCS(=O)(=O)O)c2)CSC2C(NC(=O)[C@H](NC(=O)c3cnc4cccnc4c3O)c3ccc(O)cc3)C(=O)N12 (stereo partly drawn) [BB-S620, 7-[D-α-(4-Hydroxy-1,5-naphthyridine-3-carboxamido)-α-(4-hydroxyphenyl)acetamido]-3-[3-(2-sulfoethyl)pyridinium]methyl 3-cephem-4-carboxylate]	14	800	1800	60	28	40	12500	6.25	3.2
O=C(O)CSc1cc[n+](CC2=C(C(=O)[O-])N3C(=O)C(NC(=O)[C@H](NC(=O)c4cnc5cccnc5c4O)c4ccc(O)c(Cl)c4)C3SC2)cc1 (stereo partly drawn) [BB-S621, 7-[D-α-(4-Hydroxy-1,5-naphthyridine-3-carboxamido)-α-(3-chloro-4-hydroxyphenyl)acetamido]-3-[4-(carboxymethylthio)-pyridinium]methyl-3-cephem-4-carboxylate]	18	800	1400	121	20	54	10000	4.6	2.4
O=C([O-])C1=C(C[n+]2cccc(C(=O)O)c2)CSC2C(NC(=O)[C@H](NC(=O)c3cnc4cccnc4c3O)c3ccsc3)C(=O)N12 (stereo partly drawn) [BB-S624, 7-[D-α-(4-Hydroxy-1,5-naphthyridine-3-carboxamido)-α-(3-thienyl)acetamido]-3-(3-carboxypyridinium)methyl-3-cephem-4-carboxylate]	10	328	413	47	79	50	9500	20	–
O=C([O-])C1=C(C[n+]2cccc(S(=O)(=O)O)c2)CSC2C(NC(=O)[C@H](NC(=O)c3cnc4cccnc4c3O)c3ccsc3)C(=O)N12 (stereo partly drawn) [BB-S625, 7-[D-α-(4-Hydroxy-1.5-naphthyridine-3-carboxamido)-α-(3-thienyl)acetamido]-3-(3-sulfopyridinium)methyl-3-cephem-4-carboxylate]	7	200	400	32	50	54	10000	36	–
O=C(O)C=Cc1ccc[n+](CC2=C(C(=O)[O-])N3C(=O)C(NC(=O)[C@H](NC(=O)c4cnc5cccnc5c4O)c4ccsc4)C3SC2)c1 (stereo partly drawn) [BB-S626, 7-[D-α-(4-Hydroxy-1,5-naphthyridine-3-carboxamido)-α-(3-thienyl)acetamido]-3-[3-(2-carboxyvinyl)pyridinium]methyl-3-cephem-4-carboxylate]	11	231	460	41	45	42	8800	30	–
O=C(O)CSc1ccc[n+](CC2=C(C(=O)[O-])N3C(=O)C(NC(=O)[C@H](NC(=O)c4cnc5cccnc5c4O)c4ccc(O)cc4)C3SC2)c1 (stereo partly drawn) [BB-S636, 7-[D-α-(4-Hydroxy-1,5-naphthyridine-3-carboxamido)-α-(4-hydroxyphenyl)acetamido]-3-(3-carboxymethylthiopyridinium)-methyl-3-cephem-4-carboxylate]	50	7070	–	242	71	–	–	–	–
O=C(O)CSc1ccc[n+](CC2=C(C(=O)[O-])N3C(=O)C(NC(=O)[C@H](NC(=O)c4cnc5cccnc5c4O)c4ccc(O)c(Cl)c4)C3SC2)c1 (stereo partly drawn) [BB-S637, 7-[D-α-(4-Hydroxy-1,5-naphthyridine-3-carboxamido)-α-(3-chloro-4-hydroxyphenyl)acetamido]-3-(3-carboxymethylthiopyridinium)methyl-3-cephem-4-carboxylate]	25	3530	–	113	71	–	–	–	–
O=C(O)CSc1ccc[n+](CC2=C(C(=O)[O-])N3C(=O)C(NC(=O)[C@H](NC(=O)c4cnc5cccnc5c4O)c4ccc(O)c(O)c4)C3SC2)c1 (stereo partly drawn) [BB-S638, 7-[D-α-(4-Hydroxy-1,5-naphthyridine-3-carboxamido)-α-(3,4-dihydroxyphenyl)acetamido]-3-(3-carboxymethylthiopyridinium)-methyl-3-cephem-4-carboxylate]	8	2380	–	69	8	–	–	–	–
O=C(O)CSc1cc[n+](CC2=C(C(=O)[O-])N3C(=O)C(NC(=O)[C@H](NC(=O)c4cnc5cccnc5c4O)c4ccc(O)c(O)c4)C3SC2)cc1 (stereo partly drawn) [BB-S639, 7-[D-α-(4-Hydroxy-1,5-naphthyridine-3-carboxamido)-α-(3,4-dihydroxyphenyl)acetamido]-3-(4-carboxymethylthiopyridinium)-methyl-3-cephem-4-carboxylate]	35	4310	–	242	20	–	–	–	–

From US4198504A, “[3-(Pyridinium)-7-(naphthyiridinyl carbonylamino)acetamido]cephalosporanic acid derivatives” (Bristol-Myers Company, priority 1978, dated 1980)
